In patent US20200093843A1, “COMPOUNDS FOR TREATMENT OF INTRACTABLE EPILEPSY AND DOORS SYNDROME” (VIB VZW, priority 2016, published 2020):
Entries after “also recorded” stand apart in the source; their conditions may differ. One block for each compound: values may come before it.

Experiments:
wild type Sky1-353 = biological target: T1, wild type Sky1-353 (Drosophila melanogaster, UniProt Q9VIH7); assay: Liposome flotation assay; format: binding; conditions: for binding of Sky1-353 to liposomes: PC:PS liposomes enriched with 2% of the indicated phosphoinositide
T1 construct: the TBC domain of Sky (Sky1-353) was expressed from the pET28a vector (Novagen) as an N-terminal His6-tag fusion; His6 (N); made in house; host or cells: E. coli C41 (DE3)
T1 sequence (Q9VIH7 1-353): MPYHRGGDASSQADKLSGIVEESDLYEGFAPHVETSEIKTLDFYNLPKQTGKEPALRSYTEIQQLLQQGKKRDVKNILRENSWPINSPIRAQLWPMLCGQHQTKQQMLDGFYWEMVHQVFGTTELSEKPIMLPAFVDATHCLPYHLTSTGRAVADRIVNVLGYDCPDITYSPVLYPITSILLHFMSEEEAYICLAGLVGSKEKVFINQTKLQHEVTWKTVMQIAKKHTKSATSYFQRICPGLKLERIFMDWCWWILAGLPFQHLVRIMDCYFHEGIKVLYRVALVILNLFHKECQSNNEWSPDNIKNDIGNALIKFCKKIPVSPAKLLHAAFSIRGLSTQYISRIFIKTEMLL
Source text: TBC1D24 and Skywalker regulate vesicle trafficking, a process that requires membrane interactions^20,24,30. We therefore hypothesized that the positively charged pocket of Sky serves as a binding module to negatively charged membranes. We used a liposome flotation assay and mixed Sky1-353 with liposomes produced from Folch-extracted total brain lipids and centrifuged the sample in a sucrose gradient. After recovering six fractions from the top to the bottom of the centrifugation tube we find that Sky1-353 is present in the top fractions that contain the liposomes. […] A major class of lipids that regulates presynaptic activity are phosphoinositides^31. Lipid strip interaction experiments using Sky1-353 are indeed compatible with Sky interacting with phosphoinositides. We therefore resorted to liposome flotation assays using liposomes composed of phosphatidylcholine and phosphatidylserine and supplemented with different types of phosphoinositides (FIG. 3b). […] Moreover, the binding can be reversed by adding increasing concentrations of salt, as would be expected from binding that is mainly driven by electrostatic interactions.
Liposomes were prepared using either Folch brain total lipid extract or using a mix of phosphatidylcholine and phosphatidylserine (80:20 ratio) supplemented with 0.5%, 2% or 5% of a specific phosphoinositide as indicated. The liposomes were subsequently incubated with 6 μg of wild-type or mutant Sky1-353. PI(4,5)P2-Grip (Echelon Biosciences, Salt Lake City, USA) was used as a positive control. Subsequently, this mix was loaded on a sucrose cushion (30% sucrose layer, 25% sucrose layer and HP30 buffer layer) and centrifuged. Individual fractions from the top to the bottom were collected and assayed using Western blotting against His6 (Sky) or GST (PI(4,5)P2-Grip).

Sky1-353 R281C mutant = biological target: T2, Sky1-353 R281C mutant (Drosophila melanogaster, UniProt Q9VIH7, R281C); assay: Thermal shift assay, IP3 binding to Sky1-353 R281C; conditions: saturating amount of IP3, R281C mutant
T2 construct: the TBC domain of Sky (Sky1-353) was expressed from the pET28a vector (Novagen) as an N-terminal His6-tag fusion; His6 (N); made in house; host or cells: E. coli C41 (DE3)
T2 sequence (Q9VIH7 1-353 R281C): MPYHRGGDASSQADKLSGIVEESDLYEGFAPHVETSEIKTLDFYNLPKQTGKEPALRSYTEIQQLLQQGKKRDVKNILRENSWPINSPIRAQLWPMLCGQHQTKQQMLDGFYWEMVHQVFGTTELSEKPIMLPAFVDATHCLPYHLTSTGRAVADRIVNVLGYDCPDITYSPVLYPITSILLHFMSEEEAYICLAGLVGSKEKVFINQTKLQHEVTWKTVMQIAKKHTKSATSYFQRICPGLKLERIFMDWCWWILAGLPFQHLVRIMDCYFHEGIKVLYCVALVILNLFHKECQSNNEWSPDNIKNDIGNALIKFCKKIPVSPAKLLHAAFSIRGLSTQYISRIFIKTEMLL
Method: (§1) The thermal stability of the R79C and R281C mutants in absence of ligands (Tm=32° C.) is somewhat lower compared to the wild type protein (Tm=34° C.) and the R335P mutant (Tm=35° C.). […] These experimental data moreover correspond with our structural data where R79 and R281 both form bifurcated electrostatic interactions with the phosphate on position 5, while R335 forms a single electrostatic interaction with the phosphate group on position 1 (FIG. 3e).
(§2) Thermal unfolding was detected by following SYPRO orange fluorescence using a CFX connect Real-Time PCR System (BioRad). […] The temperature was increased from 20° C. to 80° C. at 0.5° C./30s steps. All measurements were done in triplicate.

Sky1-353 R335P mutant = biological target: T3, Sky1-353 R335P mutant (Drosophila melanogaster, UniProt Q9VIH7, R335P); assay: Thermal shift assay, IP3 binding to Sky1-353 R335P
T3 construct: the TBC domain of Sky (Sky1-353) was expressed from the pET28a vector (Novagen) as an N-terminal His6-tag fusion; His6 (N); made in house; host or cells: E. coli C41 (DE3)
T3 sequence (Q9VIH7 1-353 R335P): as the sequence (Q9VIH7 1-353 R281C) above, with C281R, R335P counted along it
Method: as §1, §2

Sky1-353 R79C mutant = biological target: T4, Sky1-353 R79C mutant (Drosophila melanogaster, UniProt Q9VIH7, R79C); assay: Thermal shift assay, IP3 binding to Sky1-353 R79C
T4 construct: the TBC domain of Sky (Sky1-353) was expressed from the pET28a vector (Novagen) as an N-terminal His6-tag fusion; His6 (N); made in house; host or cells: E. coli C41 (DE3)
T4 sequence (Q9VIH7 1-353 R79C): as the sequence (Q9VIH7 1-353 R281C) above, with R79C, C281R counted along it
Method: as §1, §2

[1] = biological target: T5, wild type Sky1-353 (TBC domain of Skywalker) (Drosophila melanogaster, UniProt Q9VIH7); assay: Thermal shift assay, ligand binding to wild type Sky1-353
T5 construct: the TBC domain of Sky (Sky1-353) was expressed from the pET28a vector (Novagen) as an N-terminal His6-tag fusion; His6 (N); made in house; host or cells: E. coli C41 (DE3)
T5 sequence (Q9VIH7 1-353): T1 sequence (Q9VIH7 1-353)
Method: as §2

[2] = described in literature; listed as erufosine; cited from earlier work
[3] = biological target: T6, 5′-phosphatase domain of Synaptojanin-1 (Homo sapiens, UniProt O43426); assay: Malachite Green phosphatase assay; format: biochemical; conditions: 1 mM compound, 1% DMSO, 40 μM IP3 substrate, 1 h, background subtracted
T6 construct: made in house
T6 sequence (O43426 528-873): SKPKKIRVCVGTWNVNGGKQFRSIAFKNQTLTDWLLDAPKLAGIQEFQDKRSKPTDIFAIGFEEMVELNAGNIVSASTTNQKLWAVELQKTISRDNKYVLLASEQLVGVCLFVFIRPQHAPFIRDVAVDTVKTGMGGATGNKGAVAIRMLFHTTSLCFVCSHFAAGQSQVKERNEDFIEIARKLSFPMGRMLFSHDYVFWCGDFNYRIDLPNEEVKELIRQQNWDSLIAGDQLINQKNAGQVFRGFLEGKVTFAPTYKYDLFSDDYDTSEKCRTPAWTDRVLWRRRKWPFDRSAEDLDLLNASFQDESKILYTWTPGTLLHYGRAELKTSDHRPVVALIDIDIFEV
Source text: First, an expression plasmid for the recombinant expression of the 5′-phosphatase domain of Synj1 (SEQ ID NO:1) was constructed. […] A commercially available assay in a 96-well plate format is the Malachite Green Phosphate Assay Kit (BioAssay Systems).
After assay optimization, the assay is used to measure inhibitory activity of known compounds as well as to further allow a high-throughput setup for compound screening.
The Malachite Green Phosphate Assay Kit (BioAssay Systems) is a discontinuous assay that measures the concentrations of enzymatically released phosphate after formation of a complex with malachite green and molybdate (absorbance is measured at 620 nm). […] As a read-out the Absorbance at 620 nm after 60 min incubation is measured and the background starting signal is subtracted. For inhibitory compound screening, 1 mM of the test compound dissolved in 1% DMSO was used.

[4] = test system: sky^1/2 mutants expressing Sky^R79C; assay: Seizure assay in drug-fed flies; format: in vivo, Drosophila; conditions: for rescue of seizure-like behaviour: versus mock-treated
Method: To assure that stimulation of PI(4,5)P2 levels in vivo can rescue the defects associated with the Skywalker cationic pocket mutants (Sky^R79C), a commercially available alkyl phospholipid compound, Miltefosine, with known impact on PI(4,5)P2 levels was tested for treatment of gender selected adult 4-7 day old sky^1/2 flies with cationic pocket mutations. For drug feeding, 10-20 flies per treatment vial were maintained in a 12 h light and dark cycle to maintain circadian rhythm, while the analysis was performed on 5 flies per vial for flight, after acclimatization to the test chamber, and 10 flies per vial for stimulation or behavioural challenge by vortexing. In total n=20 flies were analyzed per treatment as well as for the control flies reared on normal food (mock-treated). The effect of Miltefosine (Sigma, M5571) daily administered in dyed food at 50 μg/mL or at 100 μg/mL was tested over a feeding period of 2 and 8 days of drug exposure, after which animal behaviour was analyzed via flight and seizure assays.
Each data point represents averages of 10 animals tested over 8 days and analyzed per drug treatment as well as the control flies reared on normal food (mock-treated).
For drug treatment, a concentration range between […] was tested for daily administration. […] Treatments were performed and were tested over a feeding period of 2 and 8 days of drug exposure, after which animal behaviour was tested in flight and seizure assays.
Adult flies of the genotype sky^1/sky^2 (sky^1/2); nsyb-Gal4/UAS-Sky^R79C or genotypes as indicated, were raised at 21° C. on standard fly food, containing the indicated drugs (Miltefosine, Perifosine, Edelfosine, Erufosine) or on control food prepared without drugs. Animals were collected and gender selected 2 to 5 days after enclosure. On days 2 and 8 of incubation on drugs, flight assays were performed with groups of 5 gender-selected animals in each transparent vial. Following a tap to collect the animals at the bottom of the vial, behaviour was distinguished between walking, jumping and flight. Seizure assays were performed with groups of 10 gender-selected animals that were transferred into transparent vials and excited by vortexing once for 10 seconds in behaviour studies, or in a sequence (1 minute vortexing, 1 minute rest, 1 minute vortexing) for drug treatment studies. This test sequence was repeated following 5 minutes of rest. Active and fallen flies were quantified over the course of the following minute. To ensure natural behaviour animals were not anesthetized on the day of experiments or over the course of drug application.

[5] = PI(4,5)P2 varied from 0% to 5% in liposomes

binding of Sky1-353 to liposomes (wild type Sky1-353): does not bind
Compound: PI(3)P

binding of Sky1-353 to liposomes (wild type Sky1-353): does not bind
Compound: phosphatidylinositol [PI]

binding of Sky1-353 to liposomes (wild type Sky1-353): weak but significant binding
Compound: PI(4)P

binding of Sky1-353 to liposomes (wild type Sky1-353): weak but significant binding
Compound: PI(5)P

Compound: O=P(O)(O)O[C@@H]1[C@H](O)[C@H](O)[C@@H](OP(=O)(O)O)[C@H](OP(=O)(O)O)[C@H]1O [IP3, inositol 1,4,5-trisphosphate]
increase in thermal stability (Sky1-353 R281C mutant): 4 °C
Kd (Sky1-353 R335P mutant): 67 ± 17 µM
increase in thermal stability (Sky1-353 R335P mutant; saturating amount of IP3, R335P mutant): 8 °C
Kd (Sky1-353 R79C mutant): 325 ± 200 µM
increase in thermal stability (Sky1-353 R79C mutant; saturating amount of IP3, R79C mutant): 4 °C
Kd [1]: 19 ± 3 µM

Compound: CCCCCCCC/C=C\CCCCCCCCCCCCOP(=O)([O-])OCC[N+](C)(C)C [Erufosine]
blood-brain-barrier crossing [2]: known to allow BBB crossing

Compound: CCCCCCCCCCCCCCCCCCOP(=O)([O-])OC1CC[N+](C)(C)CC1 [Perifosine]
inhibition of 5′-phosphatase activity [3]: effective inhibitors
inhibition of 5′-phosphatase activity ([3]; listed as Perisofine): complete inhibition
effect on seizures ([4]; 1000 μg/mL daily in dyed food, up to 8 days): positive effect

binding of Sky1-353 to liposomes (wild type Sky1-353): strongest binding
PI(4,5)P2 concentration at which full binding is reached (wild type Sky1-353; [5]): 2%
lowest PI(4,5)P2 concentration at which binding is observed (wild type Sky1-353; [5]): 0.5%
Compound: phosphatidylinositol 4,5-bisphosphate [PI(4,5)P2]

Compound: CCCCCCCCCCCCCCCCOP(=O)([O-])OCC[N+](C)(C)C [Miltefosine]
inhibition of 5′-phosphatase activity [3]: effective inhibitors; also recorded: complete inhibition
rescue of seizure-like behaviour ([4]; 50 μg/mL in food, 2 days of drug feeding, p<0.001): highly significant; also recorded: significant rescue of seizure-like behaviour
rescue of seizure-like behaviour ([4]; 50 μg/mL in food, 8 days of drug feeding, p<0.1): lasted at least up to 8 days after treatment; also recorded: significant rescue of seizure-like behaviour
rescue of seizure-like behaviour ([4]; 100 μg/mL in food (probably toxic), 2 or 8 days): did not lead to significant difference

binding of Sky1-353 to liposomes (wild type Sky1-353): strongest binding
Compound: PI(3,4,5)P3
